“Also recorded” adds a separate entry of the source. One block for each compound: values may come before it.
What was measured:
PGE2-EP4 receptor = target: T1, PGE2-EP4 receptor (Mus musculus, UniProt P32240); test: PGE2-EP4 receptor inhibitor effect on FGF6-induced UCP1 mRNA in WT-1 cells; type: cell-based, murine; conditions: 10 uM, with FGF6 24 hours
T1 construct: endogenous in cells; host or cells: WT-1 murine brown preadipocytes
Experimental: The role of the PGE2-EP4 receptor was also examined. WT-1 brown adipocytes were pretreated with AH-23848 (Sigma Aldrich), a calcium salt which is an inhibitor of the PGE2-EP4 receptor. Following AH-23848 (“AH”) treatment of the WT-1 cells at concentrations of 0 uM and 10 uM, the cells were treated with FGF6 alone in growth media (DMEM+10% FBS), AH alone, or the combination of FGF6 and AH for 24 hours. UCP1 mRNA expression for each group was then determined.

FGF6 mRNA = FGF6 mRNA expression in adipose tissue of mice treated with β3-adrenergic agonist; type: in vivo, C57BL/6 mice; conditions: intraperitoneal 1 mg/kg body weight for 10 days; relative to PBS control
Experimental: (§1) Total RNA was isolated with QIAzol lysis reagent (Qiagen, Valencia, Calif.) and purified by RNeasy Mini columns (Qiagen) following the manufacture's instructions. cDNA was prepared from total RNA using the Advantage RT-PCR kit (BD Biosciences, Palo Alto, Calif.) according to manufacturer's instructions. Diluted cDNA was used in a PCR reaction with SYBR Green Master Mix (Applied Biosystems, Foster City, Calif.) and primers specifically designed for detection of the gene of interest. PCR reactions were run in duplicate for each sample and quantitated in the ABI Sequence Detection System (Applied Biosystems). Data were expressed as arbitrary units after normalization to levels of expression of internal controls for each sample. Sequences of primers for specific genes are each obtained from the published literature or designed using publically available gene sequence databases. Unless otherwise indicated, gene expression data described in the examples below was obtained using QPCR.
CL316,243 was administered by intraperitoneal injection to the mice at a dose of 1 mg/kg body weight for 10 days.

UCP1 = UCP1 mRNA expression (Q-RT-PCR) in WT-1 brown preadipocytes; type: cell-based, murine
Experimental: as §1
The effect of FGF6 on differentiation of WT-1 murine brown preadipocytes was also examined. WT-1 cells can be induced to undergo brown adipocyte differentiation, characterized by lipid accumulation and expression of adipogenic and brown fat markers, as described above (Klein et al. (1999) J Biol Chem 274:34795; Tseng et al. (2005) Nat Cell Biol 7:601). WT-1 cells were treated with FGF6 in growth media (DMEM+10% FBS), a vehicle control (“control” or “C” referred to in FIGS. 3A-D), or induction media (“induction” or “I” referred to in FIGS. 3A-D) as described above for seven days. Following the treatment, cells were examined for the color of the culture media in combination with oil Red O staining, expression of adipogenic markers, expression of brown fat markers, immunofluorescent staining of cells with UCP1 and DPAI, and Western blot analysis to determine the presence of UCP1 and β-tubulin. The results are described in FIGS. 3A to 3D.
UCP1 mRNA expression in brown adipocyte cells was determined at FGF6 concentrations ranging from 0 to 300 ng/ml in the absence of induction cocktail.
In order to determine the length of time necessary to induce UCP1 expression upon exposure to of cells to FGF6, an experiment was performed whereby FGF6 was administered to brown preadipocytes at a concentration of 200 ng/ml and UCP1 expression was determined. FGF21 and a control were also used in the time course experiment. FGF21, a member of the endocrine FGF ligands that has been implicated in the browning of white fat (Fisher F. M. et al., Genes Dev. 26:271-281, 2012). […] FGF6 could acutely induce a significant increase of UCP1 expression as early as 4 hours after a 200 ng/ml dose, as described in FIG. 4B. At 24 hours, the fold-induction of UCP1 mRNA by FGF6 reached 700-fold higher than the untreated cells, as described in FIG. 4B.
To assess FGF6's role in the regulation of mitochondrial activity, FGF6 was stably expressed in WT-1 brown preadipocytes and 3T3-F442A white preadipocytes. Stable cells were generated by viral infection followed by drug selection.
FGF2, FGF6 and FGF9 were used at a dosage of 50 ng/mL, 100 ng/mL, 200 ng/mL or 300 ng/mL. FGF21 was used at the dosage of 50 ng/ml and 500 ng/mL. The concentration of BMP7 was 3.3 nM. RNA was isolated and UCP1 and PPARγ expression levels were evaluated by quantitative reverse transcription polymerase chain reaction (Q-RT-PCR) analysis after 24 hours (i.e., 1 day) (FIG. 14A), 2 days (FIG. 14B), 5 days (FIG. 14C) and 7 days (FIG. 14D) of treatment. All experiments were performed triplicate and the data are presented as mean+/−SEM.
FGF2, FGF6 and FGF9 were used at a dosage of 200 ng/mL. FGF21 was used at a dosage of 500 ng/mL. The concentration of BMP7 was 3.3 nM. mRNA was isolated and UCP1 and PPARγ expression levels were evaluated by quantitative reverse transcription polymerase chain reaction (Q-RT-PCR) analysis after 24 hours (i.e., 1 day), 2 days, 5 days and 7 days of treatment (FIG. 15). […]

PTGS2 (COX2) = test: PTGS2 mRNA / COX2 protein expression in WT-1 brown preadipocytes; type: cell-based, murine
Experimental: as §1
Cells were harvested in lysis buffer (50 mM HEPES, 137 mM NaCl, 1 mM MgCl2, 1 mM CaCl2, 10 mM Na2P2O7, 10 mM NaF, 2 mM EDTA, 10% glycerol, 1% Igepal CA-630, 2 mM vanadate, 10 μg/ml of leupeptin, 10 μg/ml of aprotinin, 2 mM phenylmethylsulfonyl fluoride; pH 7.4). After lysis, lysates were clarified by centrifugation at 12,000×g for 20 min at 4° C., the amount of protein in the supernatants was determined by the Bradford Protein Assay (Bio-Rad Laboratories, Hercules, Calif.). Proteins were directly solubilized in Laemmli sample buffer. Equal amounts of lysates were separated by sodium dodecyl sulfate-polyacrylamide gel electrophoresis and transferred to Immobolin-P membranes. […] Specifically bound primary antibodies were detected with peroxidase-coupled secondary antibody and enhanced chemiluminescence (ECL, Amersham Biosciences, Piscataway, N.J.).
To determine if FGF4, FGF5, FGF6, FGF10, FGF16, FGF17, FGF18 or FGF20 induced either UCP1 mRNA or PTGS2 mRNA expression, murine brown preadipocyte WT-1 cells (Tseng et al., Nat. Cell. Biol. (2005) 7(6):601-611) were grown in growth media (DMEM-high glucose+10% FBS) supplemented with FGF4, FGF5, FGF6, FGF10, FGF16, FGF17, FGF18, FGF20 or buffer (control) in combination with insulin (20 nM) and triidothyronine (T3, 1 nM) for three days. All FGFs were used at a dosage of 200 ng/mL. mRNA was isolated and UCP1 and PTGS2 gene expression levels were evaluated by quantitative reverse transcription polymerase chain reaction (Q-RT-PCR) analysis. […]
To test the role of specific prostaglandins (PGs) in activating UCP1 expression, WT-1 brown adipocytes were pretreated with PGE2, PGI2 and FGF6 for 24 hours. mRNA expression levels of UCP1, PTGS2, LDHA, PDK1 and PKM2 were then measured.

[1] = system: PPARγ, aP2, FAS, PRDM16, PGC1α, CIDEA; test: Adipogenic and brown fat marker mRNA expression in WT-1 brown preadipocytes; type: cell-based, murine
Experimental: as §1, with “QPCR. […]” for “QPCR.”
FGF2, FGF6 and FGF9 were used at a dosage of 50 ng/mL, 100 ng/mL, 200 ng/mL or 300 ng/mL. […] RNA was isolated and UCP1 and PPARγ expression levels were evaluated by quantitative reverse transcription polymerase chain reaction (Q-RT-PCR) analysis after 24 hours (i.e., 1 day) (FIG. 14A), 2 days (FIG. 14B), 5 days (FIG. 14C) and 7 days (FIG. 14D) of treatment. […]

UCP1 protein = UCP1 protein in WT-1 cells (immunofluorescent staining, Western blot); type: cell-based, murine; conditions: WT-1, 200 ng/mL with insulin 20 nM and T3 1 nM; relative to control cells
Experimental: Cells were harvested in lysis buffer (50 mM HEPES, 137 mM NaCl, 1 mM MgCl2, 1 mM CaCl2, 10 mM Na2P2O7, 10 mM NaF, 2 mM EDTA, 10% glycerol, 1% Igepal CA-630, 2 mM vanadate, 10 μg/ml of leupeptin, 10 μg/ml of aprotinin, 2 mM phenylmethylsulfonyl fluoride; pH 7.4). After lysis, lysates were clarified by centrifugation at 12,000×g for 20 min at 4° C., the amount of protein in the supernatants was determined by the Bradford Protein Assay (Bio-Rad Laboratories, Hercules, Calif.). Proteins were directly solubilized in Laemmli sample buffer. Equal amounts of lysates were separated by sodium dodecyl sulfate-polyacrylamide gel electrophoresis and transferred to Immobolin-P membranes. Membranes were blocked overnight at 4° C. and incubated with the indicated antibody for 2 hours at room temperature. Specifically bound primary antibodies were detected with peroxidase-coupled secondary antibody and enhanced chemiluminescence (ECL, Amersham Biosciences, Piscataway, N.J.).
The effect of FGF6 on differentiation of WT-1 murine brown preadipocytes was also examined. WT-1 cells can be induced to undergo brown adipocyte differentiation, characterized by lipid accumulation and expression of adipogenic and brown fat markers, as described above (Klein et al. (1999) J Biol Chem 274:34795; Tseng et al. (2005) Nat Cell Biol 7:601). […]

UCP1 and PTGS2 = UCP1 and PTGS2 mRNA in WT-1 cells undergoing adipocyte differentiation; type: cell-based, murine; conditions: after induction media; 200 ng/mL FGF or 3.3 nM BMP7, 2 days
Experimental: In a separate experiment investigating the ability of FGF proteins to induce UCP1 expression in cells undergoing adipocyte differentiation, WT-1 preadipocyte cells were differentiated by culturing in growth media supplemented with insulin (20 nM) and triiodothyronine (T3, 1 nM) for 3 days, followed by incubation in an induction media (growth medium supplemented 20 nM insulin, 1 nM T3, 0.5 mM isobutyl-methylxanthine, 5 μM dexamethasone) for 2 days. The cell were then exposed to BMP7 (3.3 nM) or 200 ng/mL of FGF2, FGF6 or, FGF9 in growth media supplemented with insulin (20 nM) and triodothyronine (T3, 1 nM) for 2 additional days. Cells were harvested and UCP1 and PTGS2 mRNA expression levels were determined according to the quantitative RT-PCR assay described above. Experiments were performed in triplicate and the data presented as mean+/−SEM.

[2] = 50, 100 or 300 ng/mL with insulin and T3, three days, FGF1 effect at 300 ng/ml
[3] = 200 ng/mL with insulin and T3, three days

T1 sequence (P32240 whole entry): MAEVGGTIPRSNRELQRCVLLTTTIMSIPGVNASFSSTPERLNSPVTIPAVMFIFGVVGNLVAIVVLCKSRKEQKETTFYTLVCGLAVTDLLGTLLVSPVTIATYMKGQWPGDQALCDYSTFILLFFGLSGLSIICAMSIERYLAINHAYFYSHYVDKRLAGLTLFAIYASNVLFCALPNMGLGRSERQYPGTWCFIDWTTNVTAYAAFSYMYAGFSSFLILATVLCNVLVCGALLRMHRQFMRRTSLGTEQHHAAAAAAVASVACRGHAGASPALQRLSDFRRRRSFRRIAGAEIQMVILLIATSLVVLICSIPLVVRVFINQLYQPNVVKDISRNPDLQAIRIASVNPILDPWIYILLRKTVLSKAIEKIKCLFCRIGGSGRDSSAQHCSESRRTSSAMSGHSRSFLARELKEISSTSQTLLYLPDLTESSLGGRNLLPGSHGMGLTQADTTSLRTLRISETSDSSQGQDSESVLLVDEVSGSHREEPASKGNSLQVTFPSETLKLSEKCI

- effect of FGF6 on UCP1 expression in the presence of inhibitor (PGE2-EP4 receptor): reduced; also recorded: suppression
Compound: O=C(O)CC/C=C\CC[C@H]1[C@H](N2CCOCC2)C(=O)C[C@H]1OCc1ccc(-c2ccccc2)cc1 [AH-23848]

Compound: C[C@H](Cc1ccc2c(c1)OC(C(=O)[O-])(C(=O)[O-])O2)NC[C@H](O)c1cccc(Cl)c1.[Na+].[Na+] [CL316,243]
- FGF6 mRNA expression levels in interscapular BAT and subcutaneous WAT (FGF6 mRNA): increased

Compound: FGF1: fibroblast growth factor 1, recombinant human, R&D Systems
- UCP1 mRNA expression (UCP1; [2]): induced expression
- PTGS2 mRNA expression (PTGS2 (COX2); [2]): induced expression

Compound: FGF2: fibroblast growth factor 2, recombinant human, R&D Systems
- UCP1 expression level (UCP1; 50-300 ng/mL with insulin and T3, 1, 2, 5 and 7 days, dose-responsive): very high levels of UCP1
- UCP1 expression level, time course (UCP1; FGF2, FGF6, FGF9 200 ng/mL, FGF21 500 ng/mL, with insulin and T3, 1, 2, 5, 7 days): very high levels of UCP1
- PPARγ expression level, time course ([1]; 200 ng/mL with insulin and T3, 1, 2, 5, 7 days): very low levels of PPARγ
- PPARγ expression level ([1]; 50-300 ng/mL with insulin and T3, 1, 2, 5 and 7 days): very low levels of PPARγ
- UCP1 protein, immunofluorescent staining (UCP1 protein): significant levels of staining
- PTGS2 mRNA expression in cells undergoing adipocyte differentiation (UCP1 and PTGS2): able to induce
- UCP1 mRNA expression in cells undergoing adipocyte differentiation (UCP1 and PTGS2): able to induce

Compound: FGF16: fibroblast growth factor 16
- expression of UCP1 (UCP1; [3]): minimal expression

Compound: FGF20: fibroblast growth factor 20
- PTGS2 mRNA expression relative to the control (PTGS2 (COX2); [3]): increased

Source: patent US20170173114A1, “METHODS AND COMPOSITIONS FOR INDUCTION OF UCP1 EXPRESSION” (Joslin Diabetes Center, Inc., priority 2014, published 2017)
